These results are taken from patent US9314498B2, “Bacteriocin derived from Lactobacillus rhamnosus” (priority 2011, dated 2016).

The test system of series [1] is Porphyromonas gingivalis LPS (P.g-LPS) on RAW264.7 macrophage-like cells, ccl2. Briefly: LPS inactivation: ccl2 secretion of RAW264.7 cells (ELISA). It counts as cell-based, mouse. The procedure: As a medium, RPMI 1640 medium supplemented with 10% FBS (Fetal Bovine Serum) (Biological industries, Haemek, Israel), 1% antibiotic and 1% L-glutamine was used. In each well of a 24-well plate, 400 μl of the medium was placed, and 100,000 cells/well of mouse-derived RAW264.7 macrophage-like cells were inoculated thereto.
The bacteriocin Kog1 or Kog2, which was the same as in Example 1, was incubated in an Eppendorf tube under each of the following 4 conditions together with Porphyromonas gingivalis LPS (manufactured by InvivoGen) (hereinafter referred to as P.g-LPS) and the same medium as described above, at 37° C. under a gas phase of 5% CO2 for 2 hours: (1) 100 ng/ml P.g-LPS positive control; (2) 100 ng/ml P.g-LPS+5 μM Kog1 or Kog2; (3) 100 ng/ml P.g-LPS+10 μM Kog1 or Kog2; (4) 100 ng/ml P.g-LPS+20 μM Kog1 or Kog2.
The above-described medium placed in each well of the 24-well plate was removed using a pipetteman, and the medium in the Eppendorf tube for each of the 4 conditions described above was placed in the plate, followed by culturing the cells in the well plate at 37° C. under a gas phase of 5% CO2 for 12 hours. Thereafter, the culture supernatant was collected, and the amount of a chemokine ccl2 or the amount of a cytokine TNF-α secreted into the medium was quantified by the ELISA method by measuring the absorbance at 450 nm using a microplate reader. Since both ccl2 and TNF-α are involved in formation of inflammation, analysis of the relationship between the endotoxin LPS and the bacteriocins Kog1 and Kog2 is possible.
A general note: ELISA stands for enzyme-linked immunosorbent assay.

Series [2] relates to Candida albicans MYA274 strain. Briefly: Boiling experiment: antimicrobial activity (ATP) against Candida albicans MYA274. In kind it is cell-based. As to conditions: concluded from supernatant boiled at 100° C. for 20 minutes; peptides not directly used. The protocol:
In Example 9, antimicrobial activity against the Candida albicans MYA274 strain was investigated. The Candida albicans MYA274 strain was precultured in Sabouraud dextrose broth (Difco) at 37° C. for 24 hours, and then washed twice with MQ water, followed by being prepared such that OD600 is 0.3 (1.0×10^7 cells/ml).
In Example 9, the bacteriocin Kog1 or Kog2, or the Lactobacillus rhamnosus KO1 strain or KO3 strain, was not directly used. Instead, a lactic acid bacterium medium containing the Lactobacillus rhamnosus KO3 strain, 8020 yogurt (liquid type), was used in the experiment More specifically, the 8020 yogurt (liquid type) was prepared by adding the Lactobacillus rhamnosus KO3 strain at a concentration of 1% and YF-L811 starter at a concentration of 1% to the 15% skim milk+3% glucose medium, and then performing culture at 35° C. for 2 days.
Such 8020 yogurt (liquid type) was centrifuged to obtain a supernatant from which the lactic acid bacterium was removed (hereinafter referred to as Supernatant B). In the experiment, Supernatant B and a sample prepared by boiling Supernatant B at 100° C. for 20 minutes (hereinafter referred to as Supernatant Boil) were used. […]
In order to study changes in the antimicrobial activity by boiling, the following 3 kinds of samples were placed in a 24-well plate, and the value of ATP (pmol/L) after 24 hours of incubation at 37° C. was measured. […]

The test system of series [3] is Streptococcus mutans NCTC10449 strain. Briefly: Antimicrobial activity against Streptococcus mutans NCTC10449. It counts as cell-based. The following applies: 0 to 100 μM, FIG. 4.
Series [4] relates to Streptococcus sobrinus B-13 strain. In words: Antimicrobial activity against Streptococcus sobrinus B-13. It counts as cell-based. The following applies: tested 0 to 100 μM. The protocol: [The procedure below names another organism; the source lists this organism under the same test.] (§1) The Candida albicans GDH18 strain was precultured using SD medium (Difco) at 37° C. for 24 hours under aerobic conditions. The Streptococcus sobrinus B-13 strain, Streptococcus mutans NCTC10449 strain and Streptococcus mutans Ingbritt strain were precultured using TSB medium (Difco) supplemented with 5% yeast extract (Difco) at 37° C. for 24 hours under aerobic conditions. The Porphyromonas gingivalis Hudoi001 strain and Aggregatibacter actinomycetemcomitans Hudoe001 strain were precultured using BHI medium (Difco) supplemented with hemin (5 mg/L) and vitamin K3 (1 mg/L) at 37° C. for 96 hours under anaerobic conditions with Anaero Pack System (Mitsubishi Gas Chemical Company, Inc.).
(§2) After the culture, the cells of the Candida, cariogenic bacteria and periodontal disease bacteria were collected by centrifugation at 1000×g, and washed twice with 1 mM phosphate buffer (pH 6.8). The cells were then suspended such that the final concentration was 1×10^8 cfu/ml or 1×10^7 cells/m. For suspension of the Streptococcus strains, ultrasonic treatment was also carried out.
Evaluation of the antimicrobial activity was carried out by the method by Edgerton and others (1998) with some modifications. With 20 mL of 1 mM phosphate buffer containing 0 to 25 μM Kog1 or Kog2 synthesized in Example 1, 20 μl of the suspension of the Candida albicans GDH18 strain cultured and prepared by the method described in the above Preparation Example was mixed, and the resulting mixture was incubated at 37° C. for 90 minutes with shaking. As a control, 20 ml of 1 mM phosphate buffer alone was used. The reaction was stopped by addition of 360 ml of YNB medium (Difco), and the number of colonies formed (colony forming units; CFUs) was counted together with the number of colonies in the control, to determine the percentage of living bacterial cells. That is, the equation of: (CFUs of suspension containing Kog1 or Kog2/CFU ml^−1 of control suspension)×100 was used to calculate the percentage. […]

Series [5] relates to Porphyromonas gingivalis Hudoi001 strain. Briefly: Antimicrobial activity against Porphyromonas gingivalis Hudoi001. In kind it is cell-based. The following applies: not shown in the figures. The procedure:
as §1, §2
That is, it is assumed that, in Examples described in Patent Literature 1, the Lactobacillus rhamnosus KO3 strain expressed Kog1 and Kog2, and the expressed Kog1 and Kog2 exerted antimicrobial activity against the Porphyromonas gingivalis Hudoi001 strain. […]

For the substance “Kog2: peptide having the amino acid sequence shown in SEQ ID NO: 2, bacteriocin of Lactobacillus rhamnosus, synthesized by the tea-bag method (MTKVRSSRLRPLTLRLLSAPARAQFLTIACRAILRYDLINS; listed as Lactobacillus rhamnosus)”, the “amount of the chemokine ccl2 secreted” value was “decreases” in series [1] (100 ng/ml P.g-LPS + Kog2 above a certain level, as amount added increases) and “increases” in series [1] (100 ng/ml P.g-LPS + small amount of Kog2 (5 μM)). Also, the “heat resistance (antimicrobial activity after heating)” value in series [2] is listed as “still maintain antimicrobial activity after heating”. Also, the “antimicrobial activity compared to the other antimicrobial peptides (hBD2, lysozyme)” value in series [3] is listed as “capable of killing a larger amount of Streptococcus mutans even at relatively low peptide concentration”. Moreover, in series [4], the “peptide concentration at which 100% of the strain was killed” value is 0.39 µM. For the same substance, the antimicrobial activity result in series [5] is “capable of exerting antimicrobial activity”.
